The results in this text go back to patent publication US9834526B2 (MERCK SHARP & DOHME CORP., priority 2013, dated 2017).

This experiment deals with T1, wildtype HIV-1 protease (Human immunodeficiency virus type 1 group M subtype B, UniProt P04585).
T1 construct: preincubated with the HIV-1 protease (wild type) enzyme in assay buffer; made in house; host or cells: Escherichia coli
Nature of the experiment: Inhibition of microbial expressed HIV protease (Pepcleav). Format: biochemical. The conditions noted are these: wild type HIV-1 protease expressed in E. coli, 20 pM enzyme, 400 micromolar peptide substrate, pH 5.5, LC-MS readout; mean of at least two independent experiments. Here is the method:
Assay for Inhibition of Microbial Expressed HIV Protease (“Pepcleav”)
Studies of the inhibition of the wildtype HIV-1 protease (which was expressed in Escherichia coli) were carried out with a peptide substrate [Val-Ser-Gln-Asn-(βnaphthyl)Ala-Pro-Ile-Val (SEQ ID NO:1)]. The inhibitor was first preincubated with the HIV-1 protease (wild type) enzyme in assay buffer (50 mM sodium acetate, pH 5.5, 100 mM NaCl, and 0.1% BSA) for 30 minutes at room temperature. Substrate was added to 400 micromolar in a total volume of 20 microliters containing 20 picomolar HIV-1 protease (final) and the reaction was incubated for 1 hour at 30° C. The reaction was quenched with the addition of formic acid and indinavir to 0.012% and 150 nM final concentrations, respectively. The product formation was determined after separation of product and substrate on a Zorbax Eclipse XDB-C18 column connected to an API 4000 mass spectrometer (Applied Biosystems) with multiple reaction monitoring (transitions were 644.5/428.9 and 615.4/422.2 (M1/M3) for product and indinavir respectively). The extent of inhibition of the reaction was determined from the peak area of the products. Analysis of the products, independently synthesized, provided quantitation standards and confirmation of the product composition.
As to `COC(=O)N[C@H](C(=O)Nc1ccccc1CC[C@@H]1CN[C@H](C)[C@@H](CSc2ccc(Cl)cc2)O1)C(c1ccccc1)c1ccccc1` [Example 1, N-(2-{2-[(2R,5R,6S)-6-{[(4-chlorophenyl)sulfanyl]methyl}-5-methylmorpholin-2-yl]ethyl}phenyl)-Nα-(methoxycarbonyl)-β-phenyl-L-phenylalaninamide], inhibition was half-maximal at 17.5 nM (IC50).

As to `COC(=O)N[C@H](C(=O)Nc1ccccc1CC[C@@H]1CN[C@H](C)[C@@H](COc2ccc(C#N)cc2)O1)C(c1ccccc1)c1ccccc1` [Example 2], the IC50 (as a rule, the concentration at which inhibition is half-maximal) turned out to be 222 nM.

Take `COC(=O)N[C@H](C(=O)Nc1ccccc1CC[C@@H]1CN[C@H](C)[C@@H](CSc2ncccc2Cl)O1)C(c1ccccc1)c1ccccc1` [Example 3, N-(2-{2-[(2R,5R,6S)-6-{[(3-chloropyridin-2-yl)sulfanyl]methyl}-5-methylmorpholin-2-yl]ethyl}phenyl)-Nα-(methoxycarbonyl)-β-phenyl-L-phenylalaninamide]: it took 7.52 nM to reach half-maximal inhibition (IC50).

For `COC(=O)N[C@H](C(=O)Nc1ccccc1CC[C@@H]1CN[C@H](C)[C@@H](CSc2cccc3ncccc23)O1)C(c1ccccc1)c1ccccc1` [Example 4, methyl [(2S)-1-{[2-(2-{(2R,5R,6S)-5-methyl-6-[(quinolin-5-ylsulfanyl)methyl]morpholin-2-yl}ethyl)phenyl]amino}-1-oxo-3,3-diphenylpropan-2-yl]carbamate], inhibition was half-maximal at 10.6 nM (IC50).

`COC(=O)N[C@H](C(=O)Nc1ccccc1CC[C@@H]1CN[C@H](C)[C@@H](CSc2nnc(-c3ccncc3)o2)O1)C(c1ccccc1)c1ccccc1` [Example 5, methyl N-[(1S)-1-benzhydryl-2-[[2-[2-[(2R,5R,6S)-5-methyl-6-[[5-(4-pyridyl)-1,3,4-oxadiazol-2-yl]sulfanylmethyl]morpholin-2-yl]ethyl]phenyl]amino]-2-oxo-ethyl]carbamate] registered an IC50 of 4.96 nM.

Consider `COC(=O)N[C@H](C(=O)Nc1ccccc1CC[C@@H]1CN[C@H](C)[C@@H](CSc2nnc(Cn3nccc3C)o2)O1)C(c1ccccc1)c1ccccc1` [Example 6, methyl N-[(1S)-1-benzhydryl-2-[[2-[2-[(2R,5R,6S)-5-methyl-6-[[5-[(5-methylpyrazol-1-yl)methyl]-1,3,4-oxadiazol-2-yl]sulfanylmethyl]morpholin-2-yl]ethyl]phenyl]amino]-2-oxo-ethyl]carbamate], for which the IC50 was 5.12 nM.

In turn, `COC(=O)N[C@H](C(=O)Nc1ccccc1CC[C@@H]1CN[C@H](C)[C@@H](CSc2nnc(Cc3csc(C)n3)o2)O1)C(c1ccccc1)c1ccccc1` [Example 7, methyl N-[(1S)-1-benzhydryl-2-[[2-[2-[(2R,5R,6S)-5-methyl-6-[[5-[(2-methylthiazol-4-yl)methyl]-1,3,4-oxadiazol-2-yl]sulfanylmethyl]morpholin-2-yl]ethyl]phenyl]amino]-2-oxo-ethyl]carbamate] showed an IC50 of 7.95 nM.

Consider `COC(=O)N[C@H](C(=O)Nc1ccccc1CC[C@@H]1CN[C@H](C)[C@@H](CSc2ccc(Cl)cn2)O1)C(c1ccccc1)c1ccccc1` [Example 8, methyl N-[(1S)-1-benzhydryl-2-[[2-[2-[(2R,5R,6S)-6-[(5-chloro-2-pyridyl)sulfanylmethyl]-5-methyl-morpholin-2-yl]ethyl]phenyl]amino]-2-oxo-ethyl]carbamate], for which the IC50 is 8.35 nM.

`COC(=O)N[C@H](C(=O)Nc1ccccc1CC[C@@H]1CN[C@H](C)[C@@H](CSc2cnc3ccccc3n2)O1)C(c1ccccc1)c1ccccc1` [Example 9, methyl N-[(1S)-1-benzhydryl-2-[[2-[2-[(2R,5R,6S)-5-methyl-6-(quinoxalin-2-ylsulfanylmethyl)morpholin-2-yl]ethyl]phenyl]amino]-2-oxo-ethyl]carbamate] registered an IC50 of 8.48 nM.

`COC(=O)N[C@H](C(=O)Nc1ccccc1CC[C@@H]1CN[C@H](C)[C@@H](CSc2ncnc3[nH]ncc23)O1)C(c1ccccc1)c1ccccc1` [Example 10, methyl N-[(1S)-1-benzhydryl-2-[[2-[2-[(2R,5R,6S)-5-methyl-6-(1H-pyrazolo[3,4-d]pyrimidin-4-ylsulfanylmethyl)morpholin-2-yl]ethyl]phenyl]amino]-2-oxo-ethyl]carbamate] had an IC50 of 9.43 nM.

In turn, `COC(=O)N[C@H](C(=O)Nc1ccccc1CC[C@@H]1CN[C@H](C)[C@@H](CSc2ncnc3c2cnn3C)O1)C(c1ccccc1)c1ccccc1` [Example 11, methyl N-[(1S)-1-benzhydryl-2-[[2-[2-[(2R,5R,6S)-5-methyl-6-[(1-methylpyrazolo[3,4-d]pyrimidin-4-yl)sulfanylmethyl]morpholin-2-yl]ethyl]phenyl]amino]-2-oxo-ethyl]carbamate] showed an IC50 of 11.7 nM.

As for `COC(=O)N[C@H](C(=O)Nc1ccccc1CC[C@@H]1CN[C@H](C)[C@@H](CSc2ccc(C)c(C)c2)O1)C(c1ccccc1)c1ccccc1` [Example 12, methyl N-[(1S)-1-benzhydryl-2-[[2-[2-[(2R,5R,6S)-6-[(3,4-dimethylphenyl)sulfanylmethyl]-5-methyl-morpholin-2-yl]ethyl]phenyl]amino]-2-oxo-ethyl]carbamate], the IC50 was 11.9 nM.

With `COC(=O)N[C@H](C(=O)Nc1ccccc1CC[C@@H]1CN[C@H](C)[C@@H](CSc2nncs2)O1)C(c1ccccc1)c1ccccc1` [Example 13, methyl N-[(1S)-1-benzhydryl-2-[[2-[2-[(2R,5R,6S)-5-methyl-6-(1,3,4-thiadiazol-2-ylsulfanylmethyl)morpholin-2-yl]ethyl]phenyl]amino]-2-oxo-ethyl]carbamate], the 50% inhibitory concentration (IC50) amounted to 12.5 nM.

With `COC(=O)N[C@H](C(=O)Nc1ccccc1CC[C@@H]1CN[C@H](C)[C@@H](CSc2nc(C(F)(F)F)nc3ccccc23)O1)C(c1ccccc1)c1ccccc1` [Example 14, methyl N-[(1S)-1-benzhydryl-2-[[2-[2-[(2R,5R,6S)-5-methyl-6-[[2-(trifluoromethyl)quinazolin-4-yl]sulfanylmethyl]morpholin-2-yl]ethyl]phenyl]amino]-2-oxo-ethyl]carbamate], half-maximal inhibition (IC50) was put at 14.2 nM.

In turn, `CCC(O)(c1cnc(SC[C@H]2O[C@H](CCc3ccccc3NC(=O)[C@@H](NC(=O)OC)C(c3ccccc3)c3ccccc3)CN[C@@H]2C)s1)C(F)(F)F` (stereo partly drawn) [Example 15, methyl N-[(1S)-1-benzhydryl-2-[[2-[2-[(2R,5R,6S)-6-[[5-[1-hydroxy-1-(trifluoromethyl)propyl]thiazol-2-yl]sulfanylmethyl]-5-methyl-morpholin-2-yl]ethyl]phenyl]amino]-2-oxo-ethyl]carbamate] displayed an IC50 of 17.8 nM.

The compound `COC(=O)N[C@H](C(=O)Nc1ccccc1CC[C@@H]1CN[C@H](C)[C@@H](CSc2nc(C)c(C)o2)O1)C(c1ccccc1)c1ccccc1` [Example 16, methyl N-[(1S)-1-benzhydryl-2-[[2-[2-[(2R,5R,6S)-6-[(4,5-dimethyloxazol-2-yl)sulfanylmethyl]-5-methyl-morpholin-2-yl]ethyl]phenyl]amino]-2-oxo-ethyl]carbamate] gave an IC50 of 21.5 nM.

For the compound `COC(=O)N[C@H](C(=O)Nc1ccccc1CC[C@@H]1CN[C@H](C)[C@@H](CSc2nc3ccc(OC(F)F)cc3[nH]2)O1)C(c1ccccc1)c1ccccc1` [Example 17, methyl N-[(1S)-1-benzhydryl-2-[[2-[2-[(2R,5R,6S)-6-[[5-(difluoromethoxy)-1H-benzimidazol-2-yl]sulfanylmethyl]-5-methyl-morpholin-2-yl]ethyl]phenyl]amino]-2-oxo-ethyl]carbamate], it took 25.1 nM to reach half-maximal inhibition (IC50).

Take `COC(=O)N[C@H](C(=O)Nc1ccccc1CC[C@@H]1CN[C@H](C)[C@@H](CSc2nc(C)cc(C(F)(F)F)n2)O1)C(c1ccccc1)c1ccccc1` [Example 18, methyl N-[(1S)-1-benzhydryl-2-[[2-[2-[(2R,5R,6S)-5-methyl-6-[[4-methyl-6-(trifluoromethyl)pyrimidin-2-yl]sulfanylmethyl]morpholin-2-yl]ethyl]phenyl]amino]-2-oxo-ethyl]carbamate]: the midpoint of inhibition, the IC50, lay at 34.9 nM.

The compound `COC(=O)N[C@H](C(=O)Nc1ccccc1CC[C@@H]1CN[C@H](C)[C@@H](CSc2ccncc2)O1)C(c1ccccc1)c1ccccc1` [Example 19, methyl N-[(1S)-1-benzhydryl-2-[[2-[2-[(2R,5R,6S)-5-methyl-6-(4-pyridylsulfanylmethyl)morpholin-2-yl]ethyl]phenyl]amino]-2-oxo-ethyl]carbamate] yielded an IC50 of 41.4 nM.

Compound `COC(=O)N[C@H](C(=O)Nc1ccccc1CC[C@@H]1CN[C@H](C)[C@@H](CSc2ncccc2C(F)(F)F)O1)C(c1ccccc1)c1ccccc1` [Example 20, methyl N-[(1S)-1-benzhydryl-2-[[2-[2-[(2R,5R,6S)-5-methyl-6-[[3-(trifluoromethyl)-2-pyridyl]sulfanylmethyl]morpholin-2-yl]ethyl]phenyl]amino]-2-oxo-ethyl]carbamate] yielded an IC50 of 43.3 nM.

As for `COC(=O)N[C@H](C(=O)Nc1ccccc1CC[C@@H]1CN[C@H](C)[C@@H](CSc2nc3ccc(Cl)nc3s2)O1)C(c1ccccc1)c1ccccc1` [Example 21, methyl N-[(1S)-1-benzhydryl-2-[[2-[2-[(2R,5R,6S)-6-[(5-chlorothiazolo[5,4-b]pyridin-2-yl)sulfanylmethyl]-5-methyl-morpholin-2-yl]ethyl]phenyl]amino]-2-oxo-ethyl]carbamate], the IC50 came out at 44.3 nM.
